From PubChem BioAssay (NCI) come the findings set out here.

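Briefly, cells in 96-well plates were exposed to five compound concentrations for 48 h, and endpoints were estimated by linear interpolation. Abbreviation: GI50, concentration required for 50% inhibition of growth. TGI marks complete inhibition of growth.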 Some results are limits rather than exact numbers.

Common to all, as to test: inhibition of tumour cell growth, NCI panel, 48 h
The test system of test [1] is SN12C renal.
The test system of test [2] is COLO 205 colon.
The subject of test [3] is SK-OV-3 ovarian.
In test [4] the test system is OVCAR-4 ovarian.
The subject of test [5] is MDA-MB-231 breast.
Test [6] concerns CCRF-CEM leukemia.
The subject of test [7] is NCI-H226 lung.
In test [8] the test system is HL-60(TB) leukemia.
Test [9] deals with SF-295 CNS.
Test [10] concerns HS 578T breast.

Consider `COc1cccc(Cn2c(-c3nonc3N)nc3ccccc32)c1`, for which the GI50 was 0.751 µM in test [1]; 0.393 µM in test [2]; 0.414 µM in test [3]; 2.26 µM in test [4]; 0.879 µM in test [5]; 0.348 µM in [6]. The values for the GI50 in test [7], in test [8] and in test [9] were 1.16 µM, 0.298 µM and 0.307 µM, respectively. Moreover, the TGI in [1] is greater than 100 µM; in [2], 10.1 µM; in test [3], 25.9 µM; in [4] it was greater than 65.9 µM; in test [5] it was greater than 100 µM; in test [6], greater than 100 µM. Besides, the TGI in [7] was greater than 22 µM; in test [8], 13.8 µM.
As to `COc1ccccc1/C=C/C(=O)c1c(O)cc2occc2c1OC`, the GI50 is greater than 100 µM in test [1]; greater than 100 µM in [2]; 38.2 µM in test [10]; 21.3 µM in test [3]; greater than 100 µM in test [4]; 33.1 µM in test [5]. Moreover, the GI50 was 9.72 µM in test [6], 25.1 µM in test [7] and 16.6 µM in test [9]. The TGI in [1] is greater than 100 µM; in [2], greater than 100 µM; in test [10] it was greater than 100 µM; in test [3], 84.4 µM; in [4], greater than 100 µM; in test [5], greater than 100 µM. The TGI in test [6] is greater than 100 µM; in [7], greater than 100 µM; in test [9], 55.6 µM.
For `CN(C)CCCNC(=O)c1ccc2oc3cc4ccccc4c(=O)n3c2c1`, the GI50 in test [1] was 45.6 µM; in test [2], 29.4 µM; in test [3], greater than 50 µM; in test [5] it was 16.5 µM; in [8], 29.8 µM; in test [9], 33.7 µM. Moreover, the TGI in test [1], in [2], in test [3], in test [5], in [8] and in test [9] was greater than 50 µM throughout.
`COC(=O)C(Cc1cnc[nH]1)NC(=O)CNC(=O)CCCn1c(=O)c2c3ccccc3n(C)c2n2nnc(-c3ccccc3)c12` (centres undefined): the GI50 in test [1], in test [2], in test [10], in [3], in [4] and in test [5] was greater than 100 µM each time. The GI50 in [6], in [7] and in [9] was greater than 100 µM in each case. The TGI in test [1], in test [2], in test [10], in test [3], in test [4] and in [5] was greater than 100 µM throughout. Further, the TGI in test [6], in [7] and in [9] was greater than 100 µM in each case.
In the case of `CCC(=O)C1(c2ccccc2)CCN(C)CC1`, the TGI in [2], in [10], in [3], in test [4], in test [6] and in test [8] was greater than 100 µM throughout. The compound further returned a TGI in test [9] greater than 100 µM.
With `CCN(CC)c1ccc(C2CC(c3cc(OC)c(OC)c(OC)c3)=NN2)cc1` (centres undefined), the GI50 in [1] was 0.737 µM; in test [3], 0.537 µM; in test [4], 4.34 µM; in [5], 0.513 µM; in test [6], 0.277 µM; in test [7] it was 4.48 µM. For the same compound, the GI50 in test [8] is 0.59 µM; in [9] it was 0.188 µM. The TGI in test [1] is greater than 100 µM; in test [3], greater than 100 µM; in test [4], greater than 100 µM; in test [5], 69.2 µM; in test [6] it was 1.16 µM; in [7] it was greater than 29.7 µM. For the same compound, the TGI is 2.7 µM in [8] and 5.19 µM in test [9].
With `COc1ccc(CCN2CCCN3C2=Nc2ccccc2S3(=O)=O)cc1`, the GI50 in [1] was 0.707 µM; in test [2] it was 0.329 µM; in test [10], 0.577 µM; in test [3], 0.552 µM; in test [4], 0.912 µM; in [5], 1.68 µM. Further, the GI50 in [6] is 0.444 µM; in test [7] it was 8.25 µM; in test [9], 0.389 µM. In addition, the TGI is greater than 100 µM in test [1]; 1.48 µM in [2]; greater than 100 µM in test [10]; greater than 100 µM in test [3]; greater than 100 µM in test [4]; greater than 100 µM in test [5]. The TGI in test [6], in test [7] and in test [9] was greater than 100 µM throughout.
On to `COc1cc2c(c(OC)c1O)-c1ccc(OC)c(=O)cc1[C@@H](NC(=O)C(F)(F)F)CC2`, for which the TGI was greater than 100 µM in [1]; 0.0933 µM in test [2]; greater than 100 µM in test [3]; greater than 100 µM in [4]; 0.628 µM in test [5]; greater than 100 µM in [6]. The TGI in test [8] is 2.55 µM; in [9], greater than 100 µM.
Take `CCNCCC1(CC)C(=O)NC(=O)NC1=O`: the TGI in [1], in test [2], in test [10], in test [3], in test [4] and in test [5] was greater than 100 µM each time. Besides, the TGI in test [6], in [7] and in test [9] was greater than 100 µM throughout. Moreover, the GI50 in test [6] is greater than 100 µM.
Take `O=C(CSc1nc2ccccc2nc1-c1ccccc1)Nc1ccc(Cl)cc1`: the GI50 was 22.6 µM in test [1]; greater than 100 µM in test [2]; 16.1 µM in [10]; 78.9 µM in test [3]; 13.6 µM in [4]; 30.5 µM in [5]. Moreover, the GI50 in [6] is greater than 100 µM; in [7] it was 16.7 µM; in test [9] it was 17.5 µM. The TGI is 99.2 µM in test [1]; greater than 100 µM in test [2]; 70 µM in test [10]; greater than 100 µM in test [3]; greater than 100 µM in test [4]; greater than 100 µM in test [5]. Also, the values for the TGI in [6], in test [7] and in [9] were greater than 100 µM, 51.1 µM and 85.1 µM, respectively.
In the case of `N=C(N)/N=C(\N)c1c(-c2cc(O)ccc2O)nc2sccn12`, the GI50 in test [1] is 19.4 µM; in [2] it was 38.7 µM; in test [10], greater than 100 µM; in test [3] it was greater than 100 µM; in test [4], 33.9 µM; in [5], 18.9 µM. The GI50 was 10.3 µM in test [6], greater than 100 µM in [7] and greater than 100 µM in test [9]. In addition, the TGI in [1] was 39.7 µM; in test [2], greater than 100 µM; in [10] it was greater than 100 µM; in [3], greater than 100 µM; in test [4], greater than 100 µM; in test [5], 39.8 µM. Also, the TGI in [6] is 33.7 µM; in test [7], greater than 100 µM; in [9] it was greater than 100 µM.
`CCOC(=O)C(Cc1c[nH]c2ccc([N+](=O)[O-])cc12)(NC(C)=O)C(=O)OCC`: the GI50 was 502 µM in test [1]; greater than 1000 µM in test [2]; 80.8 µM in [10]; 184 µM in [3]; 140 µM in test [5]; greater than 546 µM in test [7]. Further, the GI50 in test [9] was 30.5 µM. Also, the TGI is greater than 1000 µM in test [1]; greater than 1000 µM in test [2]; greater than 765 µM in [10]; greater than 907 µM in test [3]; greater than 1000 µM in [5]; greater than 1000 µM in test [7]. In test [9], this compound displayed a TGI greater than 1000 µM.
For the compound `Nc1nc(Cl)cc(NCCCCCNc2cc(Cl)nc(N)n2)n1`, the TGI in test [1], in test [2], in [3], in test [4], in test [6] and in [7] was greater than 100 µM in each case. For the same compound, the TGI in test [8] and in test [9] was greater than 100 µM each time.
On to `N.N.N.N.O=NN1CCCCCC1(P(=O)([O-])[O-])P(=O)([O-])[O-].[Pt+4].[Pt+4]`, for which the GI50 in [1], in test [2], in test [3], in test [4], in [6] and in test [7] was greater than 100 µM each time. The GI50 in test [8] and in test [9] was greater than 100 µM each time. Further, the TGI in test [1], in test [2], in test [3], in test [4], in test [6] and in test [7] was greater than 100 µM each time. The TGI in [8] and in test [9] was greater than 100 µM throughout.
As to `O=C(Cc1nc2ccccc2s1)Nc1ccc(Cl)cc1`, the TGI in test [1], in test [2], in test [3], in [4], in [6] and in test [7] was greater than 100 µM each time. The TGI in [8] and in test [9] was greater than 100 µM each time.
Regarding `O=C(NCCO)c1cc2c(cn1)[nH]c1ccccc12`, the TGI in test [1], in test [2], in [3], in test [4], in test [6] and in test [7] was greater than 100 µM throughout. The TGI in [8] and in [9] was greater than 100 µM each time.
